Data as given in patent US20260000763A1, “Methods of Manufacturing Therapeutic Cells” (The Board of Trustees of the Leland Stanford Junior …, priority 2022, published 2026).

System: Nalm6-GD2+ leukemia cells
Experiment: Nalm6-GD2+ leukemia in NSG mice treated with HA CAR T cells
Assay type: in vivo
Details: 2×10^6 HA CAR T cells IV day 3, expanded in inosine vs regular media
Protocol: A: NSG mice were injected IV with 1×10^6 Nalm6 leukemia cells at day 0, and then 0.2×10^6 CD19.28 CAR T cells, generated in regular or inosine-supplemented media were given IV on day 3. Tumor progression was monitored using bioluminescent imaging. Scales are normalized for all time points. Data are mean+s.e.m. of n=5 mice per group. […] B: NSG mice were injected IV with 1×10^6 Nalm6-GD2+ leukemia cells at day 0, and then 2×10^6 HA CAR T cells, generated in regular or inosine-containing media were given IV on day 3. Tumor progression was monitored using bioluminescent imaging. Scales are normalized for all time points. Data are mean+s.e.m. of n=5 mice per group. […] C: Overall survival. N=5 mice per group. Survival curves were compared using the log-rank Mantel-Cox test. D: NSG mice were injected intramuscular with 1×10^6 143b tumor cells. 4 days later the mice were injected with 1×10^7 Her2, Her2 grown in INO+ media or mock T cells IV. Tumor growth was monitored by caliper measurements. […] N=3-5 mice per group. Survival curves were compared using the log-rank Mantel-Cox test.
In this example, the in vivo anti-tumor potency of CAR T cells manufactured in the presence or absence of inosine was assessed. […] Three days post tumor injection, mice were evaluated and normalized for engraftment using bioluminescent imaging. […]

O=c1[nH]cnc2c1ncn2[C@@H]1O[C@H](CO)[C@@H](O)[C@H]1O [inosine, Inosine]
survival: improved | tumor control: improved
